Laboratory results as given in patent US20040043959A1, “Combination therapies for treating methylthioadenosine phosphorylase deficient cells” (priority 2002, published 2004).

Target: T1, Human MTAP (Homo sapiens, UniProt Q13126)
T1 construct: six-histidine tag (His6) (N); made in house; host or cells: E. coli BL21 DE3
T1 sequence (Q13126 1-283): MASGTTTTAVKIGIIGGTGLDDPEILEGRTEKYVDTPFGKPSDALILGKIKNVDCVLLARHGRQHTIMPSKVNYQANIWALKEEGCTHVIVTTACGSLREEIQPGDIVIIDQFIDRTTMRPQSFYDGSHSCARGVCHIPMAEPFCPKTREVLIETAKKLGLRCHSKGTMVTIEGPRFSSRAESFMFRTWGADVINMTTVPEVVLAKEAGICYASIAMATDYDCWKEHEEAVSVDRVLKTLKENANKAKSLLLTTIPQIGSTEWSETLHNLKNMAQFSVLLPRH
Assay: MTAP substrate assay, coupled spectrophotometric (adenine, xanthine oxidase)
Type: biochemical
Settings: 2 nM MTAP; for activity at 50 µM: 10 min, compound 50 uM, relative to MTA at 50 uM, read-out: MT-A—50: initial velocity as a percentage of the initial velocity with MTA as substrate; for MT-A—10: initial velocity as a percentage of the initial velocity with MTA as substrate: compound 10 uM, relative to MTA at 10 uM
Method: An enzymatic assay to determine the activity of MTAP against a given substrate was performed. Human MTAP containing an N-terminal six-histidine tag was expressed in E. coli BL21 DE3 cells. The protein was purified to homogeneity by Ni2+ affinity chromatography. Enzymatic activity was measured using a coupled spectrophotometric assay designed to monitor the reaction product adenine (Savarese, T. M., Crabtree, G. W., and Parks, R. E. Jr., (1980) Biochem. Pharmacol. 30, 189-199). Various concentrations of the indicated 5′-deoxymethylthio adenosine (MTA) or substrate were incubated in assay buffer (40 mM potassium phosphate buffer, 1 mM, and DTT 0.8 units/ml xanthine oxidase coupling enzyme) for 5 minutes at 37° C. The reaction was initiated by the addition of MTAP. The exact concentration of enzyme used varied for each substrate tested and ranged from 2 nM to 500 nM. Activity as a function of enzyme concentration was determined for each substrate tested to ensure that the appropriate enzyme concentration was used. Activity was detected by continuous monitoring of absorbance at 305 nm for 10 minutes (ΔE=15,500 M^−1).
Library compounds (10 and 50 uM) were tested using the assay described above with 2 nM MTAP enzyme. The resultant initial velocities are reported as a percentage of the initial velocity observed when MTA is the substrate. MTA controls, 10 and 50 uM concentrations, were run on each plate alongside the library compounds.

activity at 50 µM [%] | MT-A—10: initial velocity as a percentage of the initial velocity with MTA as substrate [%] | SMILES
23 | 19 | Cc1nnc(SC[C@H]2O[C@@H](n3cnc4c(N)ncnc43)[C@H](O)[C@@H]2O)s1 [2(G)(52), (2R, 3R, 4S, 5S)-2-(6-amino-9H-purin-9-yl)-5-{[(5-methyl-1,3,4-thiadiazol-2-yl)thio]methyl}tetrahydro-furan-3,4-diol]
57 | 58 | Nc1ncnc2c1ncn2[C@@H]1O[C@H](CSc2nc[nH]n2)[C@@H](O)[C@H]1O [2(G)(53), (2R, 3R, 4S, 5S)-2-(6-amino-9H-purin-9-yl)-5-[(1H-1,2,4-triazol-3-ylthio)methyl]tetrahydro-furan-3,4-diol]
44 | 36 | COC(=O)CSC[C@H]1O[C@@H](n2cnc3c(N)ncnc32)[C@H](O)[C@@H]1O [2(G)(54), methyl ({[(2S, 3S, 4R, 5R)-5-(6-amino-9H-purin-9-yl)-3,4-dihydroxy-tetrahydrofuran-2-yl]methyl}thio)acetate]
10 | 6 | CNC(=O)CSC[C@H]1O[C@@H](n2cnc3c(N)ncnc32)[C@H](O)[C@@H]1O [2(G)(56), 2-({[(2S, 3S, 4R, 5R)-5-(6-amino-9H-purin-9-yl)-dihydroxytetrahydrofuran-2-yl]methyl}thio)-N-methylacetamide]
45 | 31 | Nc1ncnc2c1ncn2[C@@H]1O[C@H](CSCCCCO)[C@@H](O)[C@H]1O [2(G)(57)]
47 | 38 | Nc1ncnc2c1ncn2[C@@H]1O[C@H](CSCCc2ccncc2)[C@@H](O)[C@H]1O [2(G)(58), (2R, 3R, 4S, 5S)-2-(6-amino-9H-purin-9-yl)-5-{[(2-pyridin-4-ylethyl)thio]methyl}tetra-hydrofuran-3,4-diol]
20 | 15 | Nc1ncnc2c1ncn2[C@@H]1O[C@H](CSCCc2cnccn2)[C@@H](O)[C@H]1O [2(G)(61)]
7 | 6 | CC1OCCC1SC[C@H]1O[C@@H](n2cnc3c(N)ncnc32)[C@H](O)[C@@H]1O (stereo partly drawn) [2(G)(62), (2R, 3R, 4S, 5S)-2-(6-amino-9H-purin-9-yl)-5-{[(2-methyltetra-hydrofuran-3-yl)thio]methyl}tetrahydrofuran-3,4-diol]
5 | 5 | Cn1c(CO)cnc1SC[C@H]1O[C@@H](n2cnc3c(N)ncnc32)[C@H](O)[C@@H]1O [2(G)(63), (2R, 3R, 4S, 5S)-2-(6-amino-9H-purin-9-yl)-5-({[5-(hydroxymethyl)-1-methyl-1H-imidazol-2-yl]thio}methyl)tetra-hydrofuran-3,4-diol]
45 | 42 | CCC(C)SC[C@H]1O[C@@H](n2cnc3c(N)ncnc32)[C@H](O)[C@@H]1O (stereo partly drawn) [2(G)(68), (2R, 3R, 4S, 5S)-2-(6-amino-9H-purin-9-yl)-5-[(sec-butylthio)methyl]tetra-hydrofuran-3,4-diol]

The remaining lines, values behind:

SMILES | activity at 50 µM [%] | MT-A—10: initial velocity as a percentage of the initial velocity with MTA as substrate [%]
Nc1ncnc2c1ncn2[C@@H]1O[C@H](CSc2nc3ccccc3c(=O)[nH]2)[C@@H](O)[C@H]1O [2(G)(50), 2-({[(2S, 3S, 4R, 5R)-2-(6-amino-9H-purin-9-yl)-dihydroxytetrahydro-furan-2-yl]methyl}thio)-quinazolin-4-(3H)-one] | 37 | 9
Nc1ccc2[nH]c(SC[C@H]3O[C@@H](n4cnc5c(N)ncnc54)[C@H](O)[C@@H]3O)nc2c1 [2(G)(51), (2R, 3R, 4S, 5S)-2-(6-amino-9H-purin-9-yl)-5-{[(5-amino-1H-benzoimidazol-2-yl)thio]methyl}tetrahydro-furan-3,4-diol] | 36 | 16
Nc1ncnc(SC[C@H]2O[C@@H](n3cnc4c(N)ncnc43)[C@H](O)[C@@H]2O)n1 [2(G)(55), (2R, 3R, 4S, 5S)-2-(6-amino-9H-purin-9-yl)-5-{[(4-amino-1,3,5-triazin-2-yl)thio]methyl}tetra-hydrofuran-3,4-diol] | 47 | 43
Nc1cccnc1SC[C@H]1O[C@@H](n2cnc3c(N)ncnc32)[C@H](O)[C@@H]1O [2(G)(59), (2R, 3R, 4S, 5S)-2-(6-amino-9H-purin-9-yl)-5-{[(3-aminopyridin-2-yl)thio]methyl}tetra-hydrofuran-3,4-diol] | 47 | 18
NC(=O)c1cccnc1SC[C@H]1O[C@@H](n2cnc3c(N)ncnc32)[C@H](O)[C@@H]1O [2(G)(60), 2-({[(2S, 3S, 4R, 5R)-5-(6-amino-9H-purin-9-yl)-3,4-dihydroxytetrahydro-furan-2-yl]methyl}thio)-nicotinamide] | 8 | 4
Nc1ncnc2c1ncn2[C@@H]1O[C@H](CSc2nc(O)c3cc[nH]c3n2)[C@@H](O)[C@H]1O [2(G)(64), (2R, 3R, 4S, 5S)-2-(6-amino-9H-purin-9-yl)-5-{[(4-hydroxy-7H-pyrrolo[2,3-d]pyrimidin-2-yl)thio]methyl}tetra-hydrofuran-3,4-diol] | 48 | 48
CC(C)n1c(O)nnc1SC[C@H]1O[C@@H](n2cnc3c(N)ncnc32)[C@H](O)[C@@H]1O [2(G)(65), (2R, 3R, 4S, 5S)-2-(6-amino-9H-purin-9-yl)-5-{[(5-hydroxy-4-isopropyl-4H-1,2,4-triazol-3-yl)thio]methyl}tetrahydrofuran-3,4-diol] | 4 | 5
CN(C)Cc1nnc(SC[C@H]2O[C@@H](n3cnc4c(N)ncnc43)[C@H](O)[C@@H]2O)n1C [2(G)(66), (2R, 3R, 4S, 5S)-2-(6-amino-9H-purin-9-yl)-5-[({5-[(dimethylamino)-methyl]-4-methyl-4H-1,2,4-triazol-3-yl}thio)methyl]tetrahydro-furan-3,4-diol] | 6 | 6
Cc1nnc(SC[C@H]2O[C@@H](n3cnc4c(N)ncnc43)[C@H](O)[C@@H]2O)n1C [2(G)(67), (2R, 3R, 4S, 5S)-2-(6-amino-9H-purin-9-yl)-5-{[(4,5-dimethyl-4H-1,2,4-triazol-3-yl)thio]methyl}tetra-hydrofuran-3,4-diol] | 47 | 45
Nc1ncnc2c1ncn2[C@@H]1O[C@H](CSc2cnccn2)[C@@H](O)[C@H]1O [2(G)(69), (2R, 3R, 4S, 5S)-2-(6-amino-9H-purin-9-yl)-5-[(pyrazin-2-ylthio)methyl]tetrahydro-furan-3,4-diol] | 40 | 31
Nc1ncnc2c1ncn2[C@@H]1O[C@H](CSc2ccccc2Br)[C@@H](O)[C@H]1O [2(G)(70), (2R, 3R, 4S, 5S)-2-(6-amino-9H-purin-9-yl)-5-{[(2-bromophenyl)-thio]methyl}tetrahydro-furan-3,4-diol] | 3 | 6
